# In patent US10961279B2 (priority 2011, dated 2021):
# Test system: CTLL-2 cells
# Format: cell-based
sequence,measurement,value
DRGWGNGCGDFGKG [FLV FUS non-IS],effect of the dimeric peptides on proliferation of CTLL-2 cells,non-immune suppressive
DRGWGNGCGLFGKG [monomeric peptide],inhibition of proliferation of CTLL-2 cells,no effect
GLFGAIAGFIENGWEGCGGEKEKEK [wt INF],effect of the dimeric peptides on proliferation of CTLL-2 cells (synthesis of new DNA),inhibits synthesis of new DNA
PALSTGLIHLHQNIVDVQCGGEKEKEK,inhibition of proliferation of T-cells,inhibits proliferation of T-cells in a concentration dependent manner
